Results: patent publication US20230389545A1, “ANTIMICROBIAL COMPOSITION” (The Procter & Gamble Company, priority 2022, published 2023)

Experiments:
Gram Negative = experiment: Surface Antimicrobial Kill Testing Method, activity normalized to triclosan internal standard; assay type: cell-based; details: for antimicrobial activity (in words, comment on Table 1B): composition with nonionic surfactant and non-aqueous solvent; for antimicrobial benefit (in words, comment on Table 2B): DPGME / Surfonic L24-9 composition
Description: Inoculum is prepared by streaking microorganism onto a Tryptic Soy Agar (TSA) plate and incubating for 24 h at 33° C. Plated bacteria is resuspended in saline until the transmittance percentage falls within the accepted range for ˜10^8 cfu/mL. For K. pneumonia (Kp) and P. aeruginosa (Pa), this is 31.00-33.00% T. For S. aureus (Sa) this is 23.00-25.00% T. A 10× concentration is made by spinning down the prepared inoculum, removing the supernatant saline from the bacterial pellet, then resuspending the pellet in 1/10th of the original volume of saline. The final inoculum is prepared with 5% of “soil” in the form of Fetal Bovine Serum (FBS).
A 18×18 mm sterile glass coverslip is placed into an appropriate container (e.g. petri dish). 20 μL of prepared inoculum is added to the glass coverslip. Inoculum is then air-dried for 30 minutes in a 36° C. incubator. After drying, 40 μL of test sample is added on top of the dried inoculum. This is incubated at room temperature for the desired contact time. 5 mL of neutralizing media (Modified Letheen Broth+Tween+Lecithin (MLBTL)) is added to the coverslip and shaken on an orbital shaker for 5 minutes to ensure proper neutralization and extraction. Viability is then assessed of the neutralized and extracted sample by traditional/alternative microbiological techniques.
The normalized antimicrobial activity reported in the performance examples below was generated from detection time data obtained as described in the Surface Antimicrobial Kill Test Method. To account for day-to-day variability an internal standard was tested with each series. […] Normalized activity is reported following the equation 1 below.
Normalized Activity=(αΔDT−βΔDT)/(γΔDT−βΔDT) equation 1.
where, αΔDT is the average detection time of the antimicrobial compound, and γΔDT is the average detection time of the reference triclosan internal standard, and βΔDT is the average detection time of the background unperturbed bacteria.
Modified amino acids of the present disclosure were tested as aqueous solutions in the Surface Antimicrobial Kill Testing Method above. To prepare test solutions modified amino acids were first dissolved in the appropriate solvent. Second the selected surfactant is added to the mixture. After vortex (1 min, Vortex-2 Genie, vortex speed 8) mixing, the samples were then diluted with […] of reverse osmosis water (RO water, Millipore Direct-Q™, pH 6). The aqueous solution was then vortexed (1 min, Vortex-2 Genie, vortex speed 8), to which the second ½ portion of water is added. The pH of the solution was then adjusted to the target pH using either 1N HCl, Glacial Acetic Acid, or 1N NaOH. The final solution was then vortexed (1 min, Vortex-2 Genie, vortex speed 8). An example batch sheet is provided below in Table 1.
After treatment, microbial growth is referenced and reported to a triclosan sample and unaltered microbes according to the Normalization of Antimicrobial Activity provided above.

[1] = Stability of the isolated solid followed by 1H NMR; assay type: physicochemical; details: storage

Structure (SMILES) | antimicrobial activity (in words, comment on Table 1B) (Gram Negative) | stability of the independent solid by 1H NMR [1] | antimicrobial benefit (in words, comment on Table 2B) (Gram Negative) | antimicrobial efficacy versus pH (in words, comment on Table 3) (Gram Negative; composition pH of about 2 to less than about pH 9) | microbial activity with surfactants (in words, comment on Table 4) (Gram Negative; with non-ionic and amphoteric surfactants, isotropic solutions)
CC(C)(C)OC(=O)[C@@H](N)Cc1c[nH]c2ccccc12 [Synthetic Example 1, L-tryptophan tert-butyl ester] | proved to be antimicrobial | stable for several months |  |  | 
CCCCCCCCOC(=O)[C@@H](N)Cc1c[nH]c2ccccc12 [Synthetic Example 3] | highest antimicrobial activity | stable for several months |  |  | 
CCCCCCCCCCCCOC(=O)[C@@H](N)Cc1c[nH]c2ccccc12 [Synthetic Example 4] |  | stable for several months |  |  | 
CCCCCCCCOC(=O)[C@@H](N)Cc1ccc(O)cc1 [Synthetic Example 5] |  | stable for several months | antimicrobial benefit over the solvent/surfactant alone and over Comparative Example C2 | improved antimicrobial efficacy | improved microbial activity over the aqueous solution of the modified amino acid alone
CC/C=C\CCCCCOC(=O)[C@@H](N)Cc1ccc(O)cc1 [Synthetic Example 6] |  | stable for several months | antimicrobial benefit over the solvent/surfactant alone and over Comparative Example C2 |  | 
CCCCCC(CCC)COC(=O)[C@@H](N)Cc1ccc(O)cc1 (stereo partly shown) [Synthetic Example 7] |  | stable for several months | antimicrobial benefit over the solvent/surfactant alone and over Comparative Example C2 |  | 
